Reference: patent US20120129833A1, “CYCLIC KETOENOLS FOR THERAPY” (BAYER PHARMA AKTIENGESELLSCHAFT, priority 2010, published 2012)

How the values were obtained:
[1] = target: T1, recombinant human ACC1 (acetyl-CoA carboxylase 1) (Homo sapiens, UniProt Q13085); assay: Human ACC1 enzyme assay (HTRF ADP detection); assay type: biochemical; conditions: 50 μM ATP, 20 μM acetyl-CoA, 15 min pre-incubation, 20 min at 22° C.; read-out: ACC 1 IC50;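 also: ADP by-product quantified by competitive HTRF immunoassay with europium cryptate anti-ADP antibody and d2-labelled ADP, read after 1 h binding at 22 °C, enzyme near 2.5 ng/µl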
T1 construct: NM_198834, amino acids 39—end; FLAG (C); made in house; host or cells: baculovirus-transfected insect cells (Hi5)
Protocol: The basic principle of the assay is the measurement of adenosine diphosphate (ADP), which is formed as a by-product, by means of an HTRF®-based competitive immunoassay (HTRF=Homogeneous Time Resolved Fluorescence).
The amount of complex of d2-labelled ADP and europium cryptate-labelled anti-ADP antibody was then determined by measuring the resonance energy transfer of europium cryptate to d2.

[2] = target: T2, ACC2 (acetyl-CoA carboxylase 2) (Homo sapiens, UniProt O00763); assay: Human ACC2 enzyme assay (HTRF ADP detection); assay type: biochemical; conditions: 20 μM acetyl-CoA, 15 min pre-incubation, 20 min at 22° C.; read-out: ACC 2 IC50
T2 construct: catalogue no; 50201, amino acids 39—end, expressed in baculovirus-transfected Sf9 insect cells; His (C); purchased BPS Bioscience (San Diego, Calif.) 50201; host or cells: baculovirus-transfected Sf9 insect cells
T2 sequence (O00763 39-2458 limits assumed): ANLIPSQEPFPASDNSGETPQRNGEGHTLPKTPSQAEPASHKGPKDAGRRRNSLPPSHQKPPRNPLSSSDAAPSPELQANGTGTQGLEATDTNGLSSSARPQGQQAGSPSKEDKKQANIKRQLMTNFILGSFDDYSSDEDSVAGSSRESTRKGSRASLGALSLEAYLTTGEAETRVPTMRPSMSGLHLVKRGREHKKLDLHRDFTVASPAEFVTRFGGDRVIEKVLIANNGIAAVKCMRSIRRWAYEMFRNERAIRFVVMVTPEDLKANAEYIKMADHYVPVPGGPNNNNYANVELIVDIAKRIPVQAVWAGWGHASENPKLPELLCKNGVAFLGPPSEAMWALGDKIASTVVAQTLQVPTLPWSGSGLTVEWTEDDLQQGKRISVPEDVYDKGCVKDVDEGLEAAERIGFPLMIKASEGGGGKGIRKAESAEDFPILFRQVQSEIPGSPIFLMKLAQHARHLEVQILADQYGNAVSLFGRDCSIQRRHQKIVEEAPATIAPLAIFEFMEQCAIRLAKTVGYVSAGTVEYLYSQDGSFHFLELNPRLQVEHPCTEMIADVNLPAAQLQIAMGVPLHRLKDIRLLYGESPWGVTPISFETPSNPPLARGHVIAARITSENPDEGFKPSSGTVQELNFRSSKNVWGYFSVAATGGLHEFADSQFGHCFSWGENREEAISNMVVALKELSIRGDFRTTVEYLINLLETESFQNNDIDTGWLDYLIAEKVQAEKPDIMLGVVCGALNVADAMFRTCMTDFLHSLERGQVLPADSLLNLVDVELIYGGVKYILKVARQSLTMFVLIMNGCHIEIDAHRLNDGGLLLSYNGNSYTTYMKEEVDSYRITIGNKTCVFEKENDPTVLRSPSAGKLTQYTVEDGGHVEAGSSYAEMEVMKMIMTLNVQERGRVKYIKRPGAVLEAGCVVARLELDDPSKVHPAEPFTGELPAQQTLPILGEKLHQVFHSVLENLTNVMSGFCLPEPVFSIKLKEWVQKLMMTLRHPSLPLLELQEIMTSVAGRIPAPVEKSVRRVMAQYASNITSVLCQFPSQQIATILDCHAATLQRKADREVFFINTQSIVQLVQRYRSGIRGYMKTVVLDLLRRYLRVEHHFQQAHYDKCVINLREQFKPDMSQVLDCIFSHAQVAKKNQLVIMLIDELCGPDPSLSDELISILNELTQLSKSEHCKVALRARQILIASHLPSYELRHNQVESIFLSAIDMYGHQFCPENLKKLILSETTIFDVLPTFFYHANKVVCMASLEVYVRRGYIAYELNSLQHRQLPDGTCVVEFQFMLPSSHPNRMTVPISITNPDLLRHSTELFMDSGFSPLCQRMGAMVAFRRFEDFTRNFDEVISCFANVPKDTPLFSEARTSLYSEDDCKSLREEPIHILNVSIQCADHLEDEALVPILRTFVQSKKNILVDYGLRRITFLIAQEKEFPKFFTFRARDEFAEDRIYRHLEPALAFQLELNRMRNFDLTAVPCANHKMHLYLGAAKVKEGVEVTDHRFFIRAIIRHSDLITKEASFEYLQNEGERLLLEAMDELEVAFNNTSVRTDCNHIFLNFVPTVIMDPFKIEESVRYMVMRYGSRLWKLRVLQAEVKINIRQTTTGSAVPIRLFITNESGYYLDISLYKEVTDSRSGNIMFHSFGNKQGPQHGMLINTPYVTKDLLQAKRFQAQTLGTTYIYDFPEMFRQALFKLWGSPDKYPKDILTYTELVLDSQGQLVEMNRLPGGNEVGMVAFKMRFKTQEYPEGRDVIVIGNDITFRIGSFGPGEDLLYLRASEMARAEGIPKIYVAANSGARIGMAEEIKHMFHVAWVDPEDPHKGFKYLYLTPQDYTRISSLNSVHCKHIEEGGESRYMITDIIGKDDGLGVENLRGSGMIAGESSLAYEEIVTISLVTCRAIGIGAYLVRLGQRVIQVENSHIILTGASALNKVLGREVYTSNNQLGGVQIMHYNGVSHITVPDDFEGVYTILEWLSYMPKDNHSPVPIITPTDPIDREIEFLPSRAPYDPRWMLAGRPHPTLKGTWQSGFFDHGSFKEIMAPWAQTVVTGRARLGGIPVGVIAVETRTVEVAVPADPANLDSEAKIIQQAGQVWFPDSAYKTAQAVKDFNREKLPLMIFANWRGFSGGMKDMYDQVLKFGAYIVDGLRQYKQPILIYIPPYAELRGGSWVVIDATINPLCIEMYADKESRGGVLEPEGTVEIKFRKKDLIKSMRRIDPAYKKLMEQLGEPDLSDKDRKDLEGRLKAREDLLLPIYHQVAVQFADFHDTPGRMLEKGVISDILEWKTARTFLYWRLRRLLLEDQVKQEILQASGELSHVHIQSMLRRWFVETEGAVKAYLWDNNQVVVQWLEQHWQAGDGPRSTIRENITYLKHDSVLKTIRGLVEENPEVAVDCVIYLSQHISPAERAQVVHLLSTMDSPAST

Row | Molecule | IC50 [1] [nM] | IC50 [2] [nM]
1 | Cc1cc(C)c(-c2ccc(Cl)cc2)cc1C1=C(O)C2(CCSCC2)OC1=O [Example 2-42, 3-(4′-chloro-4,6-dimethylbiphenyl-3-yl)-4-hydroxy-1-oxa-8-thiaspiro[4.5]dec-3-en-2-one] | 357 | 1020
2 | Cc1ccc(-c2ccc(Cl)cc2)cc1C1=C(O)C(C)(C2CCCCC2)OC1=O (stereo not shown) [Example 2-40, 3-(4′-chloro-4-methylbiphenyl-3-yl)-5-cyclohexyl-4-hydroxy-5-methylfuran-2(5H)-one] | 1220 | > 20000
3 | CO[C@H]1CC[C@]2(CC1)NC(=O)C(c1cc(-c3ccc(F)cc3)ccc1Cl)=C2O [Example 1-44, (5s,8s)-3-(4-chloro-4′-fluorobiphenyl-3-yl)-4-hydroxy-8-methoxy-1-azaspiro[4.5]dec-3-en-2-one] | 915 | > 20000
4 | O=C1C(c2cc(-c3ccc(Cl)cc3)ccc2Cl)C(=O)N2CCCCN12 [Example 8-2, 2-(4,4′-dichlorobiphenyl-3-yl)tetrahydro-1H-pyrazolo[1,2-a]pyridazine-1,3(2H)-dione] | 891 | > 20000
5 | CC1COC2(CCC3(CC2)NC(=O)C(c2cc(-c4ccc(Cl)cc4)ccc2Cl)=C3O)OC1 (stereo not shown) [Example 1-69, 3-(4,4′-dichlorobiphenyl-3-yl)-4-hydroxy-1′-methyl-9,13-dioxa-1-azadispiro[4.2.5.2]pentadec-3-en-2-one] | 647 | 11000
6 | CC1(F)CN2C(=O)C(c3cc(-c4ccc(Cl)cc4)ccc3Cl)C(=O)N2C1 [Example 8-13, 2-(4,4′-dichlorobiphenyl-3-yl)-6-fluoro-6-methyldihydro-1H,5H-pyrazolo[1,2-a]pyrazole-1,3(2H)-dione] | 640 | > 20000
7 | Cc1ccc(-c2ccc(C)c(C3=C(O)C4(CCOCC4)NC3=O)c2)cc1 [Example 1-15, 3-(4,4′-dimethylbiphenyl-3-yl)-4-hydroxy-8-oxa-1-azaspiro[4.5]dec-3-en-2-one] | 742 | > 20000
8 | Cc1ccc(-c2ccc(Cl)cc2)cc1-c1c(O)c2ccc(Cl)cc2[nH]c1=O [Example 9-11, 7-chloro-3-(4′-chloro-4-methylbiphenyl-3-yl)-4-hydroxyquinolin-2(1H)-one] | 420 | 4120
9 | Cc1ccc(-c2ccc(Cl)cc2)c(C)c1C1=C(O)C2(CCCOC2)NC1=O (stereo not shown) [Example 1-10, 3-(4′-chloro-2,4-dimethylbiphenyl-3-yl)-4-hydroxy-7-oxa-1-azaspiro[4.5]dec-3-en-2-one] | 550 | 6400
10 | Cc1ccc(-c2ccc(Cl)cc2)cc1C1=C(O)CC(C)(C)CC1=O [Example 7-5, 2-(4′-chloro-4-methylbiphenyl-3-yl)-3-hydroxy-5,5-dimethylcyclohex-2-en-1-one] | 610 | > 20000
11 | COCC1CCC2(CC1)OC(=O)C(c1c(C)ccc(-c3ccc(Cl)cc3)c1C)=C2O (stereo not shown) [Example 2-17, 3-(4′-chloro-2,4-dimethylbiphenyl-3-yl)-4-hydroxy-8-(methoxymethyl)-1-oxaspiro[4.5]dec-3-en-2-one] | 158 | 652
12 | Cc1cc(C)c(-c2ccc(Cl)cc2)cc1C1=C(O)C2(CCOCC2)OC1=O [Example 2-41, 3-(4′-chloro-4,6-dimethylbiphenyl-3-yl)-4-hydroxy-1,8-dioxaspiro[4.5]dec-3-en-2-one] | 791 | 4220
13 | Cc1ccc(-c2ccc(Cl)cc2)cc1C1=C(O)C(C)(C)C(C)(C)NC1=O [Example 9-14, 3-(4′-chloro-4-methylbiphenyl-3-yl)-4-hydroxy-5,5,6,6-tetramethyl-5,6-dihydropyridin-2(1H)-one] | 1640 | 5620
14 | Cc1ccc(-c2ccc(Cl)cc2)c(C)c1C1=C(O)C2(CCCCC2)OC1=O [Example 2-4, 3-(4′-chloro-2,4-dimethylbiphenyl-3-yl)-4-hydroxy-1-oxaspiro[4.5]dec-3-en-2-one] | 190 | 1500
15 | Cc1ccc(-c2ccc(Cl)cc2)cc1C1=C(O)C(C)N(C(C)C)C1=O (stereo not shown) [Example 1-19, 3-(4′-chloro-4-methylbiphenyl-3-yl)-4-hydroxy-5-methyl-1-(propan-2-yl)-1,5-dihydro-2H-pyrrol-2-one] | 874 | 6960
16 | Cc1ccc(-c2ccc(Cl)cc2)cc1C1=C(O)C2(CCCCC2)CNC1=O [Example 9-3, 4-(4′-chloro-4-methylbiphenyl-3-yl)-5-hydroxy-2-azaspiro[5.5]undec-4-en-3-one] | 1060 | 4280
17 | Cc1ccc(-c2ccc(Cl)cc2)c(C)c1C1=C(O)[C@]2(CC[C@H](OCC(F)(F)F)CC2)NC1=O [Example 1-30, (5s,8s)-3-(4′-chloro-2,4-dimethylbiphenyl-3-yl)-4-hydroxy-8-(2,2,2-trifluoroethoxy)-1-azaspiro[4.5]dec-3-en-2-one] | 542 | 300
18 | Cc1cc(C)c(-c2ccc(Cl)cc2)c(C)c1C1=C(O)[C@]2(CC[C@@]3(CCCO3)CC2)OC1=O [Example 2-31, (5r,8s)-3-(4′-chloro-2,4,6-trimethylbiphenyl-3-yl)-4-hydroxy-1,9-dioxadispiro[4.2.4.2]tetradec-3-en-2-one] | 880 | 48
19 | Cc1ccc(-c2ccc(Cl)cc2)cc1C1C(=O)N2CC(C)(F)CN2C1=O [Example 8-12, 2-(4′-chloro-4-methylbiphenyl-3-yl)-6-fluoro-6-methyldihydro-1H,5H-pyrazolo[1,2-a]pyrazole-1,3(2H)-dione] | 587 | > 20000
20 | (5r,8r)-3-(4′-chloro-2,4-dimethylbiphenyl-3-yl)-4-hydroxy-8-methoxy-8-methyl-1-azaspiro[4.5]dec-3-en-2-one [Example 1-87] | 540 | 7300
21 | Cc1cc(C)c(-c2ccc(Cl)cc2)c(C)c1C1=C(O)C2(CCCCC2)SC1=O [Example 3-4, 3-(4′-chloro-2,4,6-trimethylbiphenyl-3-yl)-4-hydroxy-1-thiaspiro[4.5]dec-3-en-2-one] | 1310 | 228
22 | Cc1ccc(-c2ccc(Cl)cc2)cc1C1=C(O)[C@]2(CC[C@H](C)CC2)NC1=O [Example 1-76, 3-(4′-chloro-4-methylbiphenyl-3-yl)-4-hydroxy-8-methyl-1-azaspiro[4.5]dec-3-en-2-one] | 201 | 233
23 | Cc1ccc(-c2ccc(Cl)cc2)cc1-c1c(O)c2ccccc2[nH]c1=O [Example 9-5, 3-(4′-chloro-4-methylbiphenyl-3-yl)-4-hydroxyquinolin-2(1H)-one] | 625 | > 20000
24 | Cc1ccc(-c2ccc(Cl)cc2)cc1C1=C(O)CN(C2CCCCC2)C1=O [Example 1-22, 3-(4′-chloro-4-methylbiphenyl-3-yl)-1-cyclohexyl-4-hydroxy-1,5-dihydro-2H-pyrrol-2-one] | 969 | 695
25 | Cc1ccc(-c2ccc(Cl)cc2)cc1C1=C(O)C2(CCCCCC2)OC1=O [Example 2-38, 3-(4′-chloro-4-methylbiphenyl-3-yl)-4-hydroxy-1-oxaspiro[4.6]undec-3-en-2-one] | 416 | 3780
26 | Cc1ccc(-c2ccc(Cl)cc2)c(C)c1C1=C(O)C2(CCC(C)CC2)NC1=O (stereo not shown) [Example 1-4, 3-(4′-chloro-2,4-dimethylbiphenyl-3-yl)-4-hydroxy-8-methyl-1-azaspiro[4.5]dec-3-en-2-one] | 460 | 330
